Columns and labels:
[1] = target: T1, FUCA1 (recombinant human GH29 α-L-fucosidase per table title) (Homo sapiens, UniProt P04066); assay: In situ inhibition of FUCA1 in living fibroblasts; format: cell-based
T1 construct: endogenous in cells; host or cells: fibroblasts
T1 sequence (P04066 32-466): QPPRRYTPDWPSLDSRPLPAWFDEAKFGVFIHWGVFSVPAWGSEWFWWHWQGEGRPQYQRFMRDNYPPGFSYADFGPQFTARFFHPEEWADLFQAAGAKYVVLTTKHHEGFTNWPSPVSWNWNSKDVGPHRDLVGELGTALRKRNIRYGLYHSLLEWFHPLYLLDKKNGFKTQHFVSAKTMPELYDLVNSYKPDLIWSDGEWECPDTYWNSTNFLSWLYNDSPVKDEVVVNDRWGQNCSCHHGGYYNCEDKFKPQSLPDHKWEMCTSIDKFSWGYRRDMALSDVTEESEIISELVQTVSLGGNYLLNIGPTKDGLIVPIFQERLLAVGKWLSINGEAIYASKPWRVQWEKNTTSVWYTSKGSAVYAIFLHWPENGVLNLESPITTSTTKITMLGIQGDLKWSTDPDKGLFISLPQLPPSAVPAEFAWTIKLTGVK

[2] = tested on: recombinant α-L-fucosidase from Bacteroides thetaiotaomicron gene 2970; assay: Competitive ABPP in E. coli lysate overexpressing bacterial α-L-fucosidase, ABP 1 labeling; format: binding
Experimental: (§1) All pre-incubations and ABP labeling-reactions occurred for 30 min at 37 °C. Total lysates (50 μg), medium (500 μg) or purified protein preparations (5 μg) were labeled with 1 μM JJB256 1 or JJB244 2, dissolved in 150 mM McIlvaine buffer, pH 4.5, incubating for 30 min at 37 °C. For ABPP, protein preparations were pre-incubated with compounds 4 (100 μM), 6 (100 μM), 7–13 (1 or 5 mM, specified in the main text) prior to the addition of 100 nM fluorescent ABPs. Influence of pH on ABP labeling involved pre-incubation at pH 3–10 prior to addition of 100 nM ABP 1. Direct labeling of retaining β-glucosidases occurred at pH 5.0 in conjunction with 100 nM ABP JJB75. Samples were then denatured with 5× Laemmli buffer (50% (v/v) 1 M Tris–HCl, pH 6.8, 50% (v/v) 100% glycerol, 10% (w/v) DTT, 10% (w/v) SDS, 0.01% (w/v) bromophenol blue), boiled for 4 min at 100 °C, and separated by gel electrophoresis on 10% (w/v) SDS-PAGE gels running continuously at 90 V.[13],[14] Wet slab-gels were scanned on fluorescence using a Typhoon Variable Mode Imager (Amersham Biosciences) using λEX 488 nm and λEM 520 nm (band pass filter 40 nm) for green fluorescent JJB256 1 and λEX 532 nm and λEM 610 nM (band pass filter 30 nm) for red fluorescent JJB244 2 and JJB75.

[3] = target: T2, recombinant human FUCA1 (human lysosomal α-L-fucosidase) (Homo sapiens, UniProt P04066); assay: In vitro inhibition of FUCA1 activity, 4-methylumbelliferyl-α-L-fucopyranoside substrate, lysates of COS-7 cells over-expressing enzyme; format: biochemical
T2 construct: expressed in transfected cells; host or cells: COS-7
T2 sequence (P04066 32-466): T1 sequence (P04066 32-466)
Experimental: Having the cyclophellitol aziridine inhibitors and probes in hand, we determined their inhibitory potency towards the human lysosomal α-L-fucosidase, FUCA1.
The enzymatic activity of α-L-fucosidase was assayed at 37 °C by incubating with 1.5 mM 4-methylumbelliferyl-α-L-fucopyranoside as substrate in 150 mM McIlvaine buffer, pH 4.5, supplemented with 0.1% (w/v) BSA. […] The reaction was quenched by adding excess NaOH–glycine (pH 10.6), after which fluorescence was measured with a fluorimeter LS55 (Perkin Elmer) using λEX 366 nm and λEM 445 nm.

α-L-fucosidase = target: T3, α-L-fucosidase (Homo sapiens, UniProt P04066); assay: Competitive ABPP in human spleen lysates (healthy and Gaucher), ABP 1 labeling; format: binding
T3 construct: lysates of spleens from a healthy human individual and a patient suffering from Gaucher disease; from tissue; host or cells: human spleen (normal subject and type 1 Gaucher patient)
T3 sequence (P04066 32-466): T1 sequence (P04066 32-466)
Excerpt: Subsequently, we exposed lysates of spleens from a healthy human individual and a patient suffering from Gaucher disease to ABP 1. […] The labeled band from human Gaucher spleen lysate is considerably more intense than the corresponding band in healthy human spleen, reflecting elevated α-L-fucosidase activity in the former. […] As before, labeling with ABP 1 was suppressed after pre-treatment with either N-benzoyl aziridine 4 or L-fuconojirimycin 6. To further ascertain that […] labels mammalian GH29 retaining α-L-fucosidases we performed a number of control experiments (ESI Fig. S2a ^†). Compound 1 labeled both FUCA1 and FUCA2 that were overexpressed in COS cells. Treatment of murine spleen lysates with 1 yielded a result essentially as observed for healthy human tissue (ESI Fig. S2b ^†).
All pre-incubations and ABP labeling-reactions occurred for 30 min at 37 °C. Total lysates (50 μg), medium (500 μg) or purified protein preparations (5 μg) were labeled with 1 μM JJB256 1 or JJB244 2, dissolved in 150 mM McIlvaine buffer, pH 4.5, incubating for 30 min at 37 °C. […] Wet slab-gels were scanned on fluorescence using a Typhoon Variable Mode Imager (Amersham Biosciences) using λEX 488 nm and λEM 520 nm (band pass filter 40 nm) for green fluorescent JJB256 1 and λEX 532 nm and λEM 610 nM (band pass filter 30 nm) for red fluorescent JJB244 2 and JJB75.

FUCA1 [4] = target: T4, FUCA1 (Homo sapiens, UniProt P04066); assay: ABP pulldown from Gaucher spleen lysate and LC-MS/MS identification; format: binding; design: lysates of spleens from a healthy human individual and a patient suffering from Gaucher disease; from tissue; host or cells: human spleen (normal subject and type 1 Gaucher patient); details: 10 μM probe, Gaucher spleen lysate
T4 sequence (P04066 32-466): T1 sequence (P04066 32-466)
Experimental: To further determine the specificity of the developed ABPs, we have analyzed the ABP-labeled proteins in a complex tissue homogenate. For this purpose, we incubated Gaucher spleen lysate with biotinylated ABP 3 or with DMSO only (control) or competitive ABP 3-labeling by first incubating with fluorescent ABP 1. Glycosylated proteins were then enriched via ConA, followed by affinity purification with streptavidin coated paramagnetic beads. The identity of biotinylated and ABP 3-labeled proteins was determined by on-bead digestion with trypsin, peptide analysis by LC-MS/MS and matching against the human UniProt database, using the Mascot search engine as previously reported.[14] […]
Gaucher spleen lysate (1 g) was cut with a sterile scalpel, mixed with 4 mL 25 mM potassium phosphate buffer (pH 6.5, supplemented with 0.1% (v/v) Triton X-100 and protease inhibitor cocktail (Roche)) and sonicated three times for 10 seconds at 100% strength and kept on ice. […] Lysate was then centrifuged for 10 min at 10 000 g, supernatant collected carefully, protein concentration determined and […] total protein was then incubated with either 0.1% (v/v) DMSO, ABP 1 or ABP 3, or firstly with 10 μM ABP 1 followed by 10 μM of ABP 3, each step taking 30 min at 37 °C, in a total volume of 1 mL McIlvaine buffer, pH 4.5. […]

FUCA1 [5] = target: T4, FUCA1; assay: Competitive ABPP on recombinant FUCA1 with ABP 1 labeling as readout; format: binding; design: expressed in transfected cells; host or cells: COS-7; details: competitive ABPP format
Experimental: as §1

Compound | IC50 [1] [nM] | IC50 [3] [nM] | suppression of ABP 1 labeling after pre-treatment (α-L-fucosidase) | other results
C[C@H]1[C@@H](O)[C@@H](O)[C@H](O)[C@H]2[C@@H]1N2C(=O)c1ccccc1 [compound 4] | 515 ± 72.9 | 372 ± 21.2 | suppressed | blocking of ABP 1 labeling of major 50 kD band ([2]; pre-incubation with 100 μM): blocked; fold less active ([3]; compared to 5): about eight-fold
CC(=O)N1[C@@H]2[C@@H](C)[C@@H](O)[C@@H](O)[C@H](O)[C@@H]21 [compound 5] | 77.9 ± 9.1 | 46.8 ± 3.4 | – | –
C[C@@H]1NC[C@@H](O)[C@H](O)[C@@H]1O.Cl [compound 6, 1-deoxy-L-fuconojirimycin, reference compound] | – | – | suppressed | blocking of ABP 1 labeling of α-L-fucosidase (FUCA1 [5]): able to inhibit FUCA1; blocking of ABP 1 labeling of major 50 kD band ([2]; pre-incubation with 5 mM): blocked
C[C@H]1[C@@H](O)[C@@H](O)[C@H](O)[C@H]2[C@@H]1N2C(=O)CCCCCCCN=[N+]=[N-] [compound 23] | 65.4 ± 7.5 | 8.7 ± 1.1 | – | fold increase in enzyme inhibition ([3]; comparing 5 with 23): 5 fold

More lines, in order of falling IC50 [3], values ahead:

IC50 [1] [nM] | IC50 [3] [nM] | Compound | suppression of ABP 1 labeling after pre-treatment (α-L-fucosidase) | other results
158 ± 22 | 8.7 ± 1.2 | COc1ccc(C2=[N+]3C(=C(CCCCc4cn(CCCCCCCC(=O)N5[C@@H]6[C@@H](C)[C@@H](O)[C@@H](O)[C@H](O)[C@@H]65)nn4)c4ccc(-c5ccc(OC)cc5)n4[B-]3(F)F)C=C2)cc1 [compound 2] | – | –
– | 7.2 ± 1.1 | C[C@H]1[C@@H](O)[C@@H](O)[C@H](O)[C@H]2[C@@H]1N2C(=O)CCCCCCCn1cc(CNC(=O)CCCCCNC(=O)CCCC[C@@H]2SC[C@@H]3NC(=O)N[C@@H]32)nn1 [compound 3] | – | identification of FUCA1 after pull-down (FUCA1 [4]): one of the top identified proteins

Source: publication PMC5654414, “In vitro and in vivo comparative and competitive activity-based protein profiling of GH29 α-L-fucosidases” (Chemical Science, 2015)
